Test results reported in PMC10778704, “Comparative Analysis of Cyclization Techniques in Stapled Peptides: Structural Insights into Protein–Protein Interactions in a SARS-CoV-2 Spike RBD/hACE2 Model System” (International Journal of Molecular Sciences, 2023).
Bridge positions count the residues as written; N and C are the ends. Peptide text beside a SMILES is read from it.

Key:
[1] = Far-UV circular dichroism, calculated percent helicity in phosphate buffer; assay type: physicochemical; settings: 100 µM in 10 mM sodium phosphate buffer (PBS), pH 7.4, 25 °C; calculated at 222 nm
Method: Figure 3 Data generated from Far-UV CD spectra for hACE2-derived peptides measured at a concentration of 100 µM in 10 mM sodium phosphate buffer at pH 7.4 and 25 °C. (A) Far-UV CD spectra of hACE2 (Asp30-Asp38)-derived linear and i, i + 4 staple peptides in molar ellipticity per residue. (B) Table listing the derivatives of 1 with a focus on the macrocyclization technique and measure-based calculated helicity (%) via CD. (C) CD spectra of hACE2 (His34-Gln42)-derived linear and i, i + 4 staple peptides in molar ellipticity per residue. (D) Table listing the derivatives of 2 with a focus on the macrocyclization technique and measure-based calculated helicity (%) via CD. HDY 1,5-Hexadiyne; BMB 1,4-Bis(bromomethyl)benzene; HFB hexafluorobenzene. ^a Predicted helicity (%) using AGADIR online software available at http://agadir.crg.es (accessed on 17 April 2023); it is only applicable to peptides consisting of natural amino acids. […]
The raw CD data (mdeg) were converted to mean residue ellipticity ( [θ] , deg·cm^2·dmol^−1·res^−1) by normalizing for peptide concentration, the number of amide bonds and path length, using Equation (2):(2) [θ]=θ/10×C×Np×l where θ is the measured ellipticity (mdeg), C is the peptide molar concentration (M), Np is the number of amino acid residues in the peptide and l is the cell path length (cm).
The maximum mean ellipticity [θ]max was calculated using Equation (3), as reported previously:(3) [θ]max=−44000+250×T×1−k/Np where T is temperature (°C) and k is the number of non-hydrogen-bonded peptide carbonyls. […]

[2] = assay type: physicochemical; settings: 100 µM in 50/50 TFE/10 mM sodium phosphate buffer, pH 7.4, 25 °C
[3] = 37 °C, comparison in words
[4] = BeStSel analysis of Far-UV CD spectra (secondary structure content); assay type: physicochemical; settings: from Far-UV CD spectra
Description: This finding prompted us to synthesize the lactam stapled peptides 22 and 23. Similar to our observations of compound 10, we also noted a dominant conformation of 22 attributable to a regular helix1 (53.7%) and an antiparallel, right-twisted β-sheet (46.3%). Therefore, the high percentage of calculated helicity in compounds 10 and 22 can be explained on the basis of the contribution of a strong, negative absorbance band within the 217–218 nm spectral range of the Far-UV CD spectra. Such features are typical of a right-twisted β-sheet.
We were also successful at applying several cyclization strategies across the panel of hACE2 (His34-Gln42)-derived peptides. […] The associated root mean square deviation (RMSD) was 0.5. […] The distortion of the helical conformation can be partially explained by the highly polar nature of our peptide sequence (7 out of 9 amino acids) and inherent limitations in terms of the maximum helicity possible for short peptides due to C- and N-terminal distortions. […] That finding highlights the substantial influence of the initial linear sequence on staple-induced helicity.

circular dichroism = settings: 10 mM Na phosphate; pH 7.4; 25 °C; 100 uM
in vitro = settings: rat, plasma
[5] = molecular target: SARS-CoV-2 Spike RBD/hACE2 interactions (Severe acute respiratory syndrome coronavirus 2, UniProt P0DTC2); assay type: biochemical, SARS-CoV-2 / human
[6] = reference control; cited from earlier work

Molecule: Ac-NH-His-Glu-[Lys-Glu-Asp-Leu-dPra]-Tyr-Gln-CO-NH2 [compound 13]
- Helicity (%) via CD [1]: 18.1%

Molecule: CC(=O)N[C@@H](Cc1c[nH]cn1)C(=O)N[C@@H](CCC(=O)O)C(=O)N[C@H]1CCCCNC(=O)C[C@@H](C(=O)N[C@@H](Cc2ccc(O)cc2)C(=O)N[C@@H](CCC(N)=O)C(N)=O)NC(=O)[C@H](CC(C)C)NC(=O)[C@H](CC(=O)O)NC(=O)[C@H](CCC(=O)O)NC1=O [peptide 4, Ac-NH-His-Glu-[Lys-Glu-Asp-Leu-Asp]-Tyr-Gln-CO-NH2] (Ac-HEKEDLDYQ-NH2; lactam 3-7)
- Helicity in 50%TFE (%) [2]: 49.4%
- Degradation / stability in rat plasma over 24 h [3]: significantly more stable
- Distorted helix2 with BeStSel [4]: 18.3%
- Helical content (α-helical character) with BeStSel [4]: 37.0%
- Regular helix1 with BeStSel [4]: 18.7%
- helicity (circular dichroism): 55.5%
- half-life (in vitro): 5 h
- Luminescence signal (RLUs), disruption of SmBiT-ACE2 + LgBiT-RBD [5]: reduced the luminescence signal

Molecule: Ac-NH-Asp-Lys-[Lys-Asn-His-Glu-Asp]-Glu-Asp-[Lys-Phe-Tyr-Gln-Asp]-CO-NH2 [peptide 24]
- Helicity (%) via CD [1]: 25.2%

Molecule: Ac-NH-His-Glu-S5-Glu-Asp-Leu-S5-Tyr-Gln-CO-NH2 [linear 11]
- Helicity (%) via CD [1]: 11.0%

Molecule: Apelin-13 (QRPRLSHKGPMPF; Apelin-13; UniProt Q9ULZ1 65-77, looked up)
- In vitro half-life (t1/2), in words [6]: short in vitro half-life
